Experimental data from PubChem BioAssay AID1259411 (Chemical Carcinogenesis Research Information System (CCRIS), 2018).
Activity calls are given as the source filed them. No rule for the calls is given here.

System: rodent carcinogenicity bioassays, tumor incidence
Experiment: CCRIS carcinogenicity studies
Summary of the method: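 NCI-built, expert-reviewed records of carcinogenicity and related test outcomes (mutagenicity, tumor promotion/inhibition) compiled from published and report sources, historical span 1985-2011, not updated.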

O=[N+]([O-])c1ccc2ccc3cccc4ccc1c2c34
carcinogen call (Species: HAMSTER, Strain/Sex: SYRIAN/MALE, Route: INTRATRACHEAL, Dose: 0, 1, 2 MG ADSORBED ONTO CARBON CARRIER PARTICLES IN 0.2 ML SALINE 1/WK FOR 92 WK (STUDY DURATION: 92 WK), Dose: 0, 1, 2 MG ADSORBED ONTO CARBON CARRIER PARTICLES IN 0.2 ML SALINE 1/WK FOR 92 WK (STUDY DURATION: 92 WK)): inactive; negative
carcinogen call (Species: HAMSTER, Strain/Sex: SYRIAN/MALE, Route: INTRATRACHEAL, Dose: 0, 1, 2 MG ADSORBED ONTO CARBON CARRIER PARTICLES IN 0.2 ML SALINE 2/WK FOR 92 WK (STUDY DURATION: 92 WK), Dose: 0, 1, 2 MG ADSORBED ONTO CARBON CARRIER PARTICLES IN 0.2 ML SALINE 2/WK FOR 92 WK (STUDY DURATION: 92 WK)): inactive; negative
carcinogen call (Species: MOUSE, Strain/Sex: B6C3F1/FEMALE, Route: INTRAPERITONEAL, Dose: 0, 7 NMOL (TOTAL DOSE), 1/7, 2/7 AND 4/7 OF THE TOTAL DOSE ADMINISTERED WITHIN 24 HR OF BIRTH AND AT 8 AND 15 D OF AGE): inactive; negative
carcinogen call (Species: MOUSE, Strain/Sex: B6C3F1/MALE, Route: INTRAPERITONEAL, Dose: 0, 7 NMOL (TOTAL DOSE), 1/7, 2/7 AND 4/7 OF THE TOTAL DOSE ADMINISTERED WITHIN 24 HR OF BIRTH AND AT 8 AND 15 D OF AGE): inactive; negative
carcinogen call (Species: MOUSE, Strain/Sex: BALB/MALE, Route: SUBCUTANEOUS, Dose: 0, 0.1 MG IN DMSO 1/WK FOR 20 WK (STUDY DURATION: 60 WK)): inactive; negative
carcinogen call (Species: MOUSE, Strain/Sex: ICR/FEMALE, Route: INTRAPERITONEAL, Dose: 0, 21 UG TOTAL DOSE (3 UG/5 µL, 6 UG/10 µL, 12 UG/20 µL DMSO ON DAYS 1,8 AND 15), 105 UG TOTAL DOSE (15 UG/5 µL, 30 UG/1, Dose: 0, 21 UG TOTAL DOSE (3 UG/5 µL, 6 UG/10 µL, 12 UG/20 µL DMSO ON DAYS 1,8 AND 15), 105 UG TOTAL DOSE (15 UG/5 µL, 30 UG/1): inactive; negative
carcinogen call (Species: MOUSE, Strain/Sex: ICR/MALE, Route: INTRAPERITONEAL, Dose: 0, 21 UG TOTAL DOSE (3 UG/5 µL, 6 UG/10 µL, 12 UG/20 µL DMSO ON DAYS 1,8 AND 15), 105 UG TOTAL DOSE (15 UG/5 µL, 30 UG/1, Dose: 0, 21 UG TOTAL DOSE (3 UG/5 µL, 6 UG/10 µL, 12 UG/20 µL DMSO ON DAYS 1,8 AND 15), 105 UG TOTAL DOSE (15 UG/5 µL, 30 UG/1): inactive; negative
carcinogen call (Species: MOUSE, Strain/Sex: STRAIN-A/FEMALE, Route: INTRAPERITONEAL, Dose: 0, 0.71, 2.14, 6.44 MMOL/KG IN 0.1 ML TRIOCTANOIN TOTAL DOSE ADMINISTERED AS 3 INJECTIONS/WK FOR 17 INJECTIONS (STUDY DU, Dose: 0, 0.71, 2.14, 6.44 MMOL/KG IN 0.1 ML TRIOCTANOIN TOTAL DOSE ADMINISTERED AS 3 INJECTIONS/WK FOR 17 INJECTIONS (STUDY DU, Tumor Site: Type of Lesion: LUNG: ADENOMA): active; positive
carcinogen call (Species: MOUSE, Strain/Sex: STRAIN-A/MALE, Route: INTRAPERITONEAL, Dose: 0, 0.71, 2.14, 6.44 MMOL/KG IN 0.1 ML TRIOCTANOIN TOTAL DOSE ADMINISTERED AS 3 INJECTIONS/WK FOR 17 INJECTIONS (STUDY DU, Dose: 0, 0.71, 2.14, 6.44 MMOL/KG IN 0.1 ML TRIOCTANOIN TOTAL DOSE ADMINISTERED AS 3 INJECTIONS/WK FOR 17 INJECTIONS (STUDY DU, Tumor Site: Type of Lesion: LUNG: ADENOMA): active; positive
carcinogen call (Species: RAT, Strain/Sex: F344/DUCRJ FISCHER/MALE, Route: SUBCUTANEOUS, Dose: 2 MG TWICE WEEKLY FOR 10 WK (STUDY DURATION: 52 WK), Tumor Site: Type of Lesion: INTEGUMENTARY SYSTEM: FIBROUS HISTIOCYTOMAS): active; positive
carcinogen call (Species: RAT, Strain/Sex: F344/FEMALE, Route: SUBCUTANEOUS, Dose: 0, 40 UMOL (TOTAL DOSE) ADMINISTERED OVER 8 WK BEGINNING WITHIN 24 HR OF BIRTH (STUDY DURATION: 86 WK), Tumor Site: Type of Lesion: HEMATOPOIETIC SYSTEM: LEUKEMIA): active; positive
carcinogen call (Species: RAT, Strain/Sex: F344/MALE, Route: SUBCUTANEOUS, Dose: 0, 0.2, 2 MG 2/WK FOR 10 WK (STUDY DURATION: 650 D), Dose: 0, 0.2, 2 MG 2/WK FOR 10 WK (STUDY DURATION: 650 D)): inactive; negative
carcinogen call (Species: RAT, Strain/Sex: F344/MALE, Route: SUBCUTANEOUS, Dose: 2 MG IN DMSO 2/WK FOR 10 WK, Tumor Site: Type of Lesion: INJECTION SITE: MALIGNANT FIBROUS HISTIOCYTOMA): active; positive
carcinogen call (Species: RAT, Strain/Sex: SPRAGUE-DAWLEY/FEMALE, Route: SUBCUTANEOUS, Dose: 0, 50, 100 UMOL/KG IN DMSO 1/WK FOR 8 WK (STUDY DURATION: 62 WK), Dose: 0, 50, 100 UMOL/KG IN DMSO 1/WK FOR 8 WK (STUDY DURATION: 62 WK), Tumor Site: Type of Lesion: INJECTION SITE: MALIGNANT FIBROUS HISTIOCYTOMA, MAMMARY GLAND: FIBROADENOMA, ADENOCARCINOMA): active; positive
carcinogen call (Species: RAT, Strain/Sex: SPRAGUE-DAWLEY/MALE, Route: SUBCUTANEOUS, Dose: 0, 50, 100 UMOL/KG IN DMSO 1/WK FOR 8 WK (STUDY DURATION: 62 WK), Dose: 0, 50, 100 UMOL/KG IN DMSO 1/WK FOR 8 WK (STUDY DURATION: 62 WK), Tumor Site: Type of Lesion: INJECTION SITE: MALIGNANT FIBROUS HISTIOCYTOMA): active; positive
carcinogen call (Species: RAT, Strain/Sex: STRAIN CD/FEMALE, Route: INTRAGASTRIC, Dose: 0, 10 UMOL IN DMSO 3/WK FOR 4 WK (TOTAL DOSE: 16 UMOL/RAT) (STUDY DURATION: 78 WK)): inactive; negative
carcinogen call (Species: RAT, Strain/Sex: STRAIN CD/FEMALE, Route: INTRAPERITONEAL, Dose: 0, 10 UMOL IN DMSO 3/WK FOR 4 WK (TOTAL DOSE: 16 UMOL/RAT) (STUDY DURATION: 78 WK), Tumor Site: Type of Lesion: MAMMARY GLAND: ADENOCARCINOMA, FIBROADENOMA): active; positive
carcinogen call (Species: RAT, Strain/Sex: STRAIN CD/FEMALE, Route: INTRAPERITONEAL, Dose: 0, 10 UMOL IN DMSO 3/WK FOR 4 WK (TOTAL DOSE: 16 UMOL/RAT) (STUDY DURATION: 78 WK), Tumor Site: Type of Lesion: PITUITARY GLAND: CARCINOMA): active; positive
carcinogen call (Species: RAT, Strain/Sex: STRAIN-CD/FEMALE, Route: GAVAGE, Dose: 0, 50 UMOL IN 0.5 ML TRIOCTANOIN 1/WK FOR 8 WK (STUDY DURATION: 49 WK), Tumor Site: Type of Lesion: MAMMARY GLAND: FIBROADENOMA): active; positive
carcinogen call (Species: RAT, Strain/Sex: STRAIN-CD/FEMALE, Route: INJECTION, Dose: 0, 0.1 ML OF 20.3 UMOL/ML DMSO INJECTED INTO MAMMARY TISSUE OF THE 3 LEFT THORACIC NIPPLES FOLLOWED THE NEXT D BY SIMILA): inactive; negative
carcinogen call (Species: RAT, Strain/Sex: STRAIN-CD/FEMALE, Route: INJECTION, Dose: 0, 0.1 ML OF A 20.3 UMOL/ML SOLUTION IN DMSO INJECTED INTO MAMMARY TISSUE UNDERLYING 3 LEFT THORACIC NIPPLES THE FOLLOWI): inactive; negative
carcinogen call (Species: RAT, Strain/Sex: STRAIN-CD/FEMALE, Route: INTRAPERITONEAL, Dose: 0, 67 UMOL/KG BW IN DMSO 3/WK FOR 4 WK (STUDY DURATION: 61 WK)): inactive; negative
carcinogen call (Species: RAT, Strain/Sex: STRAIN-CD/FEMALE, Route: INTRAPERITONEAL, Dose: 0, 67 UMOL/KG/BW IN 25 UMOL/ML DMSO 3/WK FOR 4 WK (TOTAL DOSE: 0; 119 UMOL) ADMINISTERED TO WEANLING RATS (STUDY DURATIO, Dose: 0, 67 UMOL/KG/BW IN 25 UMOL/ML DMSO 3/WK FOR 4 WK (TOTAL DOSE: 0; 119 UMOL) ADMINISTERED TO WEANLING RATS (STUDY DURATIO): inactive; negative
carcinogen call (Species: RAT, Strain/Sex: STRAIN-CD/FEMALE, Route: INTRAPERITONEAL, Dose: 0, 100 UMOL/KG BW IN DMSO 1/WK FOR 4 WK (STUDY DURATION: 90 WK), Tumor Site: Type of Lesion: MAMMARY GLAND: ADENOCARCINOMA): active; positive
carcinogen call (Species: RAT, Strain/Sex: STRAIN-CD/FEMALE, Route: INTRAPERITONEAL, Dose: 0, 100 UMOL/KG/BW IN 70 UMOL/ML DMSO 1/WK FOR 4 WK (TOTAL DOSE: 0; 77.3 UMOL) ADMINISTERED TO WEANLING RATS (STUDY DURAT, Dose: 0, 100 UMOL/KG/BW IN 70 UMOL/ML DMSO 1/WK FOR 4 WK (TOTAL DOSE: 0; 77.3 UMOL) ADMINISTERED TO WEANLING RATS (STUDY DURAT, Tumor Site: Type of Lesion: MAMMARY GLAND: ADENOCARCINOMA): active; positive
carcinogen call (Species: RAT, Strain/Sex: STRAIN-CD/FEMALE, Route: SUBCUTANEOUS, Dose: 0, 6.3 UMOL (TOTAL DOSE) ADMINISTERED OVER 8 WK BEGINNING ON DAY OF BIRTH (STUDY DURATION: 67 WK), Tumor Site: Type of Lesion: MAMMARY GLAND: TUMOR): active; positive
carcinogen call (Species: RAT, Strain/Sex: STRAIN-CD/FEMALE, Route: SUBCUTANEOUS, Dose: 0, 63 UMOL (TOTAL DOSE) ADMINISTERED OVER 8 WK BEGINNING WITHIN 24 HR OF BIRTH (STUDY DURATION: 86 WK), Tumor Site: Type of Lesion: MAMMARY GLAND: TUMOR): active; positive
carcinogen call (Species: RAT, Strain/Sex: STRAIN-CD/FEMALE, Route: SUBCUTANEOUS, Dose: 0, 100 UMOL/KG BW IN DMSO 1/WK FOR 4 WK (STUDY DURATION: 90 WK), Tumor Site: Type of Lesion: MAMMARY GLAND: FIBROADENOMA): active; positive
carcinogen call (Species: RAT, Strain/Sex: STRAIN-CD/FEMALE, Route: SUBCUTANEOUS, Dose: 0, 100 UMOL/KG/BW IN 70 UMOL/ML DMSO 1/WK FOR 4 WK (TOTAL DOSE: 0; 74.3 UMOL) ADMINISTERED TO WEANLING RATS (STUDY DURAT, Dose: 0, 100 UMOL/KG/BW IN 70 UMOL/ML DMSO 1/WK FOR 4 WK (TOTAL DOSE: 0; 74.3 UMOL) ADMINISTERED TO WEANLING RATS (STUDY DURAT, Tumor Site: Type of Lesion: MAMMARY GLAND: FIBROADENOMA): active; positive
carcinogen call (Species: RAT, Strain/Sex: STRAIN-CD/FEMALE, Route: SUBCUTANEOUS, Dose: 50, 100 UMOL/KG IN DMSO 1/WK FOR 8 WK, Tumor Site: Type of Lesion: INJECTION SITE: FIBROSARCOMA, MAMMARY GLAND: ADENOCARCINOMA): active; positive
carcinogen call (Species: RAT, Strain/Sex: STRAIN-CD/MALE, Route: SUBCUTANEOUS, Dose: 50, 100 UMOL/KG IN DMSO 1/WK FOR 8 WK, Tumor Site: Type of Lesion: INJECTION SITE: FIBROSARCOMA): active; positive
